Structures can show the parent of a compound that is named as a salt.
These molecules were tested against T1, human liver glycogen phosphorylase a (HLGPa) (Homo sapiens, UniProt P06737) (assay: Human liver glycogen phosphorylase a enzymatic activity assay (coupled, fluorescent resorufin readout, with and without 10 mM glucose)). Settings: human liver glycogen phosphorylase a enzymatic activity assay.
T1 construct: creating a full-length cDNA fused at the 5′ end to codons for methionine-glycine-alanine-histidine; 6xHis tag (leader Met-Gly-Ala-His6-Gly-Gly) (N); made in house; host or cells: E. coli (bacterial expression plasmid pTXK1007LTev)
T1 sequence (P06737 2-847 limits assumed): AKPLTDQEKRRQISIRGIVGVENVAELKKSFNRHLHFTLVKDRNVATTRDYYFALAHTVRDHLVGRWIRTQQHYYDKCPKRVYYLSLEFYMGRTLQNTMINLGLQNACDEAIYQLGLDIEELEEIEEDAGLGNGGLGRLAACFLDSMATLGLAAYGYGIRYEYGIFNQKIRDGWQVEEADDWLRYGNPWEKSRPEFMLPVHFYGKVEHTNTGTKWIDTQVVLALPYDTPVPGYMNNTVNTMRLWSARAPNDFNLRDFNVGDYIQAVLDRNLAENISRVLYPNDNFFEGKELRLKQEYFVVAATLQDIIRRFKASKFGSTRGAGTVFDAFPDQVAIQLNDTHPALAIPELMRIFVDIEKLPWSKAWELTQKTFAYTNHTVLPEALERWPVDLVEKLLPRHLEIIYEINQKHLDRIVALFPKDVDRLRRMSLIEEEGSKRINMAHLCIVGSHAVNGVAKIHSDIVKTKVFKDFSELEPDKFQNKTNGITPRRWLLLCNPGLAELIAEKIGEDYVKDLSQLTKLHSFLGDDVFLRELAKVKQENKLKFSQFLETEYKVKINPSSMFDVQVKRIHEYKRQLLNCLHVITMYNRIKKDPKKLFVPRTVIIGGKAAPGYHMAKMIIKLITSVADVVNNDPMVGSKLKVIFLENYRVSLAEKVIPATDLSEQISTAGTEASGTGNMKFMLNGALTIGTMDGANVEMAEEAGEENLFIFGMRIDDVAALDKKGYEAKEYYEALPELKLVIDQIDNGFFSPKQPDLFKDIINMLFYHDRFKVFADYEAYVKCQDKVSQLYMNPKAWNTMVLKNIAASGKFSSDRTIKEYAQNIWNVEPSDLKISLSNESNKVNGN
Type: biochemical

Structure (SMILES)	IC50
Cc1cccc(C)c1NC(=O)Nc1sc2c(c1C(=O)N[C@H](C(=O)O)C(C)C)CCCC2 [Example 3, N-{[2-({[(2,6-dimethylphenyl)amino]carbonyl}amino)-4,5,6,7-tetrahydro-1-benzothien-3-yl]carbonyl}-L-valine]	32200 nM
Cc1cccc(C)c1NC(=O)Nc1sc2ccccc2c1C(=O)N[C@H](C(=O)O)C1CCCCC1 [Example 4, (2S)-cyclohexyl({[2-({[(2,6-dimethylphenyl)amino]carbonyl}amino)-1-benzothien-3-yl]carbonyl}amino)acetic acid]	730 nM
Cc1cccc(Cl)c1NC(=O)Nc1cc2ccccc2cc1C(=O)NC(C(=O)O)C1CCCNC1 (stereo not drawn) [Example 5, {[3-({[(2-chloro-6-methylphenyl)amino]carbonyl}amino)-2-naphthoyl]amino}(piperidin-3-yl)acetic acid trifluoroacetate]	20900 nM
Cc1cc(CNC(=O)c2cc3ccccc3cc2NC(=O)Nc2c(C)cccc2Cl)on1 [Example 6, 3-({[(2-chloro-6-methylphenyl)amino]carbonyl}amino)-N-[(3-methylisoxazol-5-yl)methyl]-2-naphthamide]	35100 nM
Cc1ccccc1CC(=O)Nc1cc2ccccc2cc1C(=O)N[C@H](C(=O)O)C1CCCCC1 [Example 7, (2S)-cyclohexyl{[(3-{[(2-methylphenyl)acetyl]amino}-2-naphthalenyl)carbonyl]amino}ethanoic acid]	17000 nM
O=C(O)C[C@H](NC(=O)c1cc2ccccc2cc1NC(=O)Nc1ccccc1Cl)C(=O)O [Example 9, N-[3-({[(2-chlorophenyl)amino]carbonyl}amino)-2-naphthoyl]-L-aspartic acid]	2780 nM
Cc1ccccc1NC(=O)Nc1cc2ccccc2cc1C(=O)NCC(=O)O [Example 10, N-[3-({[(2-methylphenyl)amino]carbonyl}amino)-2-naphthoyl]glycine]	6500 nM
Cc1cccc(C)c1NC(=O)Nc1cc2ccccc2cc1C(=O)NCC(=O)O [Example 11, N-[3-({[(2,6-dimethylphenyl)amino]carbonyl}amino)-2-naphthoyl]glycine]	90 nM
O=C(O)CNC(=O)c1cc2ccccc2cc1NC(=O)Nc1ccccc1Cl [Example 12, N-[3-({[(2-chlorophenyl)amino]carbonyl}amino)-2-naphthoyl]glycine]	2520 nM
Cc1ccccc1NC(=O)Nc1cc2ccccc2cc1C(=O)N[C@@H](C)C(=O)O [Example 13, N-[3-({[(2-methylphenyl)amino]carbonyl}amino)-2-naphthoyl]-L-alanine]	15500 nM
Cc1ccccc1NC(=O)Nc1cc2ccccc2cc1C(=O)N[C@H](C(=O)O)[C@@H](C)O [Example 14, N-[3-({[(2-methylphenyl)amino]carbonyl}amino)-2-naphthoyl]-L-threonine]	6410 nM
CC[C@H](C)[C@H](NC(=O)c1cc2ccccc2cc1NC(=O)Nc1ccccc1C)C(=O)O [Example 15, N-[3-({[(2-methylphenyl)amino]carbonyl}amino)-2-naphthoyl]-L-isoleucine]	11000 nM
Cc1ccccc1NC(=O)Nc1cc2ccccc2cc1C(=O)N[C@@H](CC(C)C)C(=O)O [Example 16, N-[3-({[(2-methylphenyl)amino]carbonyl}amino)-2-naphthoyl]-L-leucine]	5100 nM
Cc1ccccc1NC(=O)Nc1cc2ccccc2cc1C(=O)N[C@@H](CC(N)=O)C(=O)O [Example 17, N-[3-({[(2-methylphenyl)amino]carbonyl}amino)-2-naphthoyl]-L-asparagine]	4720 nM
Cc1cccc(C)c1NC(=O)Nc1cc2ccccc2cc1C(=O)N[C@@H](C)C(=O)O [Example 18, N-[3-({[(2,6-dimethylphenyl)amino]carbonyl}amino)-2-naphthoyl]-L-alanine]	1480 nM

Continued, values first:

IC50	Structure (SMILES)
2000 nM	Cc1cccc(C)c1NC(=O)Nc1cc2ccccc2cc1C(=O)N[C@@H](CO)C(=O)O [Example 19, N-[3-({[(2,6-dimethylphenyl)amino]carbonyl}amino)-2-naphthoyl]-L-serine]
2240 nM	Cc1cccc(C)c1NC(=O)Nc1cc2ccccc2cc1C(=O)N1CCC[C@H]1C(=O)O [Example 20, 1-[3-({[(2,6-dimethylphenyl)amino]carbonyl}amino)-2-naphthoyl]-L-proline]
1960 nM	Cc1cccc(C)c1NC(=O)Nc1cc2ccccc2cc1C(=O)N[C@H](C(=O)O)C(C)C [Example 21, N-[3-({[(2,6-dimethylphenyl)amino]carbonyl}amino)-2-naphthoyl]-L-valine]
1080 nM	Cc1cccc(C)c1NC(=O)Nc1cc2ccccc2cc1C(=O)N[C@H](C(=O)O)[C@@H](C)O [Example 22, N-[3-({[(2,6-dimethylphenyl)amino]carbonyl}amino)-2-naphthoyl]-L-threonine]
890 nM	CC[C@H](C)[C@H](NC(=O)c1cc2ccccc2cc1NC(=O)Nc1c(C)cccc1C)C(=O)O [Example 23, N-[3-({[(2,6-dimethylphenyl)amino]carbonyl}amino)-2-naphthoyl]-L-isoleucine]
1190 nM	Cc1cccc(C)c1NC(=O)Nc1cc2ccccc2cc1C(=O)N[C@@H](CC(C)C)C(=O)O [Example 24, N-[3-({[(2,6-dimethylphenyl)amino]carbonyl}amino)-2-naphthoyl]-L-leucine]
670 nM	Cc1cccc(C)c1NC(=O)Nc1cc2ccccc2cc1C(=O)N[C@@H](CC(N)=O)C(=O)O [Example 25, N-[3-({[(2,6-dimethylphenyl)amino]carbonyl}amino)-2-naphthoyl]-L-asparagine]
3010 nM	Cc1cccc(C)c1NC(=O)Nc1cc2ccccc2cc1C(=O)N[C@@H](CCC(N)=O)C(=O)O [Example 26, N-[3-({[(2,6-dimethylphenyl)amino]carbonyl}amino)-2-naphthoyl]-L-glutamine]

Same assay, conditions: human liver glycogen phosphorylase a; table does not say whether with or without 10 mM glucose

Structure (SMILES)	IC50
Cc1cc(C)c(NC(=O)Nc2cc3ccccc3cc2C(=O)NC(C(=O)O)C2CCC(NC3CCC3)CC2)c(C)c1 (mixture of isomers) [Example 347, (cis and trans)-[4-(cyclobutylamino)cyclohexyl]({[3-({[(2,4,6-trimethylphenyl)amino]carbonyl}amino)-2-naphthalenyl]carbonyl}amino)acetic acid]	810 nM
Cc1cc(C)c(NC(=O)Nc2cc3ccccc3cc2C(=O)NC(C(=O)O)C2CCC(N3CCOCC3)CC2)c(C)c1 (mixture of isomers) [Example 348, (cis and trans)-[4-(4-morpholinyl)cyclohexyl]({[3-({[(2,4,6-trimethylphenyl)amino]carbonyl}amino)-2-naphthalenyl]carbonyl}amino)acetic acid]	1860 nM
COC(=O)C(NC(=O)c1cc2ccccc2cc1NC(=O)Nc1c(C)cc(C)cc1C)C1CCC(NC(=O)OC(C)(C)C)CC1 (mixture of isomers) [Example 349, (cis and trans)-methyl[4-({[(1,1-dimethylethyl)oxy]carbonyl}amino)cyclohexyl] ({[3-({[(2,4,6-trimethylphenyl)amino]carbonyl}amino)-2-naphthalenyl]carbonyl}amino)acetate]	6890 nM
Cc1cc(C)c(NC(=O)Nc2cc3ccccc3cc2C(=O)NC(C(=O)O)C2CCC(NC(=O)OC(C)(C)C)CC2)c(C)c1 (mixture of isomers) [Example 350, (cis and trans)-[4-({[(1,1-dimethylethyl)oxy]carbonyl}amino)cyclohexyl]({[3-({[(2,4,6-trimethylphenyl)amino]carbonyl}amino)-2-naphthalenyl]carbonyl}amino)acetic acid]	44 nM
Cc1cc(C)c(NC(=O)Nc2cc3ccccc3cc2C(=O)NC(C(=O)O)C2CCC(N)CC2)c(C)c1 (mixture of isomers) [Example 351, (cis and trans)-(4-aminocyclohexyl)({[3-({[(2,4,6-trimethylphenyl)amino]carbonyl}amino)-2-naphthalenyl]carbonyl}amino)acetic acid trifluoroacetate]	2370 nM
CNC(=O)NC1CCC(C(NC(=O)c2cc3ccccc3cc2NC(=O)Nc2c(C)cc(C)cc2C)C(=O)O)CC1 (mixture of isomers) [Example 352, (cis and trans)-(4-{[(methylamino)carbonyl]amino}cyclohexyl)({[3-({[(2,4,6-trimethylphenyl)amino]carbonyl}amino)-2-naphthalenyl]carbonyl}amino)acetic acid]	100 nM
Cc1cc(C)c(NC(=O)Nc2cc(Cl)cnc2C(=O)N[C@H](C(=O)O)C(C)OC(C)(C)C)c(C)c1 (stereo in doubt) [Example 318, N-{[5-chloro-3-({[(2,4,6-trimethylphenyl)amino]carbonyl}amino)-2-pyridinyl]carbonyl}-O-(1,1-dimethylethyl)-L-threonine]	4280 nM

Source: patent US20070249670A1, “Glycogen Phosphorylase Inhibitor Compounds and Pharmaceutical Compositions Thereof” (SMITHKLINE BEECHAM CORPORATION, priority 2004, published 2007)
